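Grown in 96-well plates, cells were treated for 48 hours with each compound at five concentrations. Insufficient inhibition: endpoint recorded as highest concentration tested. At the GI50, growth is halved.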 The source made the active and inactive calls. Cut-off read from the data, not from the text of the source: active = GI50 up to about 1.1 µM and inactive = higher.
Assays:
Assay in all cases: inhibition of tumour cell growth, NCI panel, 48 h
[1] = test system: SNB-19
[2] = test system: TK-10
[3] = test system: M14
[4] = test system: SF-295
[5] = test system: NCI-H23
[6] = test system: SK-OV-3
[7] = test system: MOLT-4
[8] = test system: HOP-62
[9] = test system: UACC-62
[10] = test system: SK-MEL-5
[11] = test system: HL-60
[12] = test system: K562
[13] = test system: A498
[14] = test system: HCT-116
[15] = test system: HCC 2998
[16] = test system: HOP-92

Measured: GI50

Cc1ccc([N+](=O)[O-])cc1NC(=O)c1cccc([N+](=O)[O-])c1O
inactive: [1] 14.1 µM | [2] 31.2 µM | [3] 16.8 µM | [4] 18 µM | [5] 12.3 µM | [6] 17.1 µM | [7] 15.6 µM | [8] 7.96 µM | [9] 3.85 µM | [10] 7.91 µM | [11] 5.01 µM | [12] 12.3 µM | [13] 11.3 µM

CC1CCc2c(sc3ncnc(N/N=C/c4ccc(Cl)cc4)c23)C1 (centres undefined)
inactive: [14] 19.3 µM | [1] 30.1 µM | [2] 38.2 µM | [3] 28 µM | [4] 29.8 µM | [5] 32.8 µM | [6] 35.6 µM | [7] 20.6 µM | [8] 41.9 µM | [9] 31.1 µM | [10] 17.6 µM | [15] 48.1 µM | [11] 19.2 µM | [12] 18.6 µM

COc1cc2cc[n+](C)c(Cc3ccccc3)c2cc1OC
inactive: [14] > 100 µM | [1] > 100 µM | [16] 96.6 µM | [2] > 100 µM | [3] > 100 µM | [4] > 100 µM | [5] > 100 µM | [6] > 100 µM | [7] > 100 µM | [9] > 100 µM | [10] > 100 µM | [12] > 100 µM | [13] > 100 µM

CC(C)C1COC(C(C)(C)C2=N[C@@H](C(C)C)CO2)=N1 (some centres undefined)
inactive: [14] > 100 µM | [1] > 100 µM | [16] 70.3 µM | [2] > 100 µM | [3] > 100 µM | [4] > 100 µM | [5] > 100 µM | [6] > 100 µM | [7] > 100 µM | [8] > 100 µM | [9] > 100 µM | [10] > 100 µM | [15] > 100 µM | [11] > 100 µM | [12] > 100 µM

CN(C)CCNC(=O)c1cccc2ccc(-c3cccnc3)nc12
inactive: [14] 3.24 µM | [1] 4.14 µM | [16] 4.39 µM | [2] 2.48 µM | [3] 8.45 µM | [4] 5.69 µM | [5] 4.39 µM | [6] 10.1 µM | [7] 2.74 µM | [8] 5.57 µM | [9] 4.73 µM | [10] 3.72 µM | [15] 5.31 µM | [11] 3.71 µM | [12] 4.74 µM | [13] 1.9 µM

COc1ccc(C(=O)Nc2ccn(CCOC(=O)c3ccc(OC)cc3)c(=O)n2)cc1
inactive: [14] > 100 µM | [16] 63 µM | [2] > 100 µM | [3] > 100 µM | [4] 58.9 µM | [6] > 100 µM | [8] 51.1 µM | [9] > 100 µM | [10] > 100 µM | [11] > 100 µM | [12] > 100 µM | [13] 93.3 µM

CC(=O)NC(CCCN)C(=O)NCc1ccccc1 (centres undefined)
inactive: [14] > 100 µM | [1] > 100 µM | [16] > 100 µM | [2] > 100 µM | [3] > 100 µM | [4] > 100 µM | [5] > 100 µM | [6] > 100 µM | [7] > 100 µM | [8] > 100 µM | [9] > 100 µM | [10] > 100 µM | [15] > 100 µM | [12] > 100 µM | [13] > 100 µM

Cn1c(=O)c(NC(=O)C(Cl)(Cl)Cl)nc2ccccc21
inactive: [14] > 100 µM | [1] > 100 µM | [2] > 100 µM | [3] > 100 µM | [4] > 100 µM | [5] > 100 µM | [6] > 100 µM | [7] > 100 µM | [8] > 100 µM | [9] > 100 µM | [10] > 100 µM | [15] > 100 µM | [11] > 100 µM | [12] > 100 µM | [13] > 100 µM

CCOC(=O)CCc1c(C)c2c(OC(C)=O)cc(OC(C)=O)cc2oc1=O
inactive: [14] 62.1 µM | [1] 65.9 µM | [16] 6.9 µM | [2] > 100 µM | [3] 43 µM | [4] 56.5 µM | [5] 44.8 µM | [8] > 100 µM | [15] 82.8 µM | [11] 40.2 µM

CCC(C)COC(=O)c1ccc(/N=C\c2ccc(/C=N/c3ccc(C(=O)OCC(C)CC)cc3)cc2)cc1 (centres undefined)
inactive: [14] > 100 µM | [1] > 100 µM | [16] > 100 µM | [3] > 100 µM | [4] > 100 µM | [5] > 100 µM | [6] > 100 µM | [7] > 100 µM | [8] > 100 µM | [9] > 100 µM | [10] > 100 µM | [15] > 100 µM | [11] > 100 µM | [12] > 100 µM | [13] > 100 µM

O=C(Nc1c(-c2nc3ccccc3[nH]2)sc(=S)n1-c1ccccc1)c1ccccc1
inactive: [1] 82 µM | [2] > 100 µM | [3] > 100 µM | [4] 97.5 µM | [5] > 100 µM | [6] > 100 µM | [7] > 100 µM | [8] 56.1 µM | [9] > 100 µM | [10] > 100 µM | [15] > 100 µM | [11] > 100 µM | [12] > 100 µM | [13] > 100 µM

COc1ccc(C2NCCc3c2[nH]c2ccccc32)cc1 (centres undefined)
inactive: [14] 51.5 µM | [1] > 100 µM | [16] > 100 µM | [2] > 100 µM | [3] 23.2 µM | [4] > 100 µM | [5] > 100 µM | [6] > 100 µM | [7] > 100 µM | [8] 21.2 µM | [9] > 100 µM | [10] 22.5 µM | [15] 24.7 µM | [11] > 100 µM | [12] 60.8 µM

O=C(O)CCSC(=S)Nc1cccc(F)c1
inactive: [14] 97.3 µM | [1] 45.2 µM | [16] 25 µM | [2] 43.4 µM | [3] 37.1 µM | [4] 28.7 µM | [5] 36.1 µM | [6] > 100 µM | [7] 30 µM | [8] 56.4 µM | [9] 13.4 µM | [10] 20 µM | [15] > 100 µM | [12] 32.3 µM | [13] 30.4 µM

CCNC(=O)/C=C/CCC#Cc1ccc(-c2ccc(-c3cccs3)s2)s1
inactive: [14] > 100 µM | [1] > 100 µM | [16] > 100 µM | [2] > 100 µM | [3] 5.61 µM | [4] > 100 µM | [5] > 100 µM | [6] > 100 µM | [7] > 100 µM | [8] > 100 µM | [9] 2.9 µM | [10] 5.24 µM | [15] > 100 µM | [11] > 100 µM

NC(=O)NC(=O)C1CCC(=O)N1S(=O)(=O)c1ccc(Cl)cc1 (centres undefined)
inactive: [14] > 100 µM | [1] > 100 µM | [16] > 100 µM | [2] > 100 µM | [3] > 100 µM | [4] > 100 µM | [5] > 100 µM | [6] > 100 µM | [7] > 100 µM | [8] > 100 µM | [9] > 100 µM | [10] > 100 µM | [11] > 100 µM | [12] > 100 µM

C=CCN1C(=O)CS/C1=N\NC(=O)c1c(C)nc2sccn12
inactive: [14] > 100 µM | [1] > 100 µM | [16] > 100 µM | [2] > 100 µM | [4] > 100 µM | [5] > 100 µM | [6] > 100 µM | [7] > 100 µM | [8] > 100 µM | [9] > 100 µM | [10] > 100 µM | [15] > 100 µM | [11] > 100 µM | [12] > 100 µM

CC(=O)OCC1OC(N2C(=O)/C(=N\NC(N)=S)c3ccc([N+](=O)[O-])cc32)C(OC(C)=O)C1OC(C)=O (centres undefined)
inactive: [14] 13.7 µM | [1] 62.5 µM | [16] 43.4 µM | [2] > 100 µM | [3] 70.5 µM | [4] 29.1 µM | [5] 16.4 µM | [6] > 100 µM | [7] 15.3 µM | [8] 31.3 µM | [9] 13.9 µM | [10] 32 µM | [15] 26.4 µM | [11] 16.6 µM | [12] 18.7 µM

CSc1n/c(=N\c2ccccc2)sn1-c1ccccc1
inactive: [14] 8.43 µM | [1] 17.1 µM | [2] 26.7 µM | [3] 10.7 µM | [4] 21.5 µM | [5] 14.1 µM | [6] 36.6 µM | [7] 11.2 µM | [8] 15.6 µM | [9] 4.76 µM | [10] 11.2 µM | [15] 17.9 µM | [11] 3.74 µM | [12] 3.24 µM | [13] 18.7 µM

CC1(CO)C(=O)OC12CCCCC2 (centres undefined)
inactive: [14] > 100 µM | [1] > 100 µM | [16] > 100 µM | [2] > 100 µM | [3] > 100 µM | [4] > 100 µM | [5] > 100 µM | [6] > 100 µM | [7] > 100 µM | [8] > 100 µM | [9] > 100 µM | [15] > 100 µM | [11] > 100 µM | [12] > 100 µM | [13] 44.4 µM
